Measured values published in ChEMBL document CHEMBL5729558, “Morpholinylpyridone compounds” (2023).

Biological target: Phosphatidylinositol 3-kinase catalytic subunit type 3 (Homo sapiens, UniProt Q8NEB9)
Test: Vps34 Biochemical Assay: Dilution series of compounds of the invention were prepared in DMSO at 100 times the final assay concentration (n1=n0/3 in 10 points). The compounds were further diluted to 4 times the assay concentration in assay buffer (Life technologies buffer Q, PV5125, diluted 5 times supplemented with 2 mM DTT and 2 mM MnCl2). 2.5 μl of the diluted compounds were added to a 384 well assay plate followed by 2.5 μl of 16.5 nM Vps34 enzyme (Life technologies, PV5126). Enzyme and compounds were pre-incubated at rt for 15 min. Then 5 μl of substrate mix containing 20 μM ATP (Life technologies, PV3227) and 200 μM PI:PS substrate (Life technologies, PV5122) in assay buffer was added to the wells containing compound and enzyme. Mixing was performed by pipetting several times. The reaction was incubated at room temperature for 1 h. Then 5 μl stop-detection mix, prepared as described in the Adapta kinase assay kit instructions (Life technologies, PV5099) containing Adapta Eu-anti-ADP antibody (2.3 nM), Alexa Fluor 647 ADP tracer (9 nM) and EDTA (30 mM) in TR-FRET buffer, was added to quench the reaction. Mixing was performed by pipetting several times. The assay plate was then incubated at room temperature for 30 min and read with Artemis micro plate reader. Percent inhibition of the compounds as compared to DMSO treated control samples was calculated. By the use of Dotmatics software compound concentration versus percent inhibition was fitted to generate IC50 values.

Chain of Phosphatidylinositol 3-kinase catalytic subunit type 3 (Q8NEB9 whole entry): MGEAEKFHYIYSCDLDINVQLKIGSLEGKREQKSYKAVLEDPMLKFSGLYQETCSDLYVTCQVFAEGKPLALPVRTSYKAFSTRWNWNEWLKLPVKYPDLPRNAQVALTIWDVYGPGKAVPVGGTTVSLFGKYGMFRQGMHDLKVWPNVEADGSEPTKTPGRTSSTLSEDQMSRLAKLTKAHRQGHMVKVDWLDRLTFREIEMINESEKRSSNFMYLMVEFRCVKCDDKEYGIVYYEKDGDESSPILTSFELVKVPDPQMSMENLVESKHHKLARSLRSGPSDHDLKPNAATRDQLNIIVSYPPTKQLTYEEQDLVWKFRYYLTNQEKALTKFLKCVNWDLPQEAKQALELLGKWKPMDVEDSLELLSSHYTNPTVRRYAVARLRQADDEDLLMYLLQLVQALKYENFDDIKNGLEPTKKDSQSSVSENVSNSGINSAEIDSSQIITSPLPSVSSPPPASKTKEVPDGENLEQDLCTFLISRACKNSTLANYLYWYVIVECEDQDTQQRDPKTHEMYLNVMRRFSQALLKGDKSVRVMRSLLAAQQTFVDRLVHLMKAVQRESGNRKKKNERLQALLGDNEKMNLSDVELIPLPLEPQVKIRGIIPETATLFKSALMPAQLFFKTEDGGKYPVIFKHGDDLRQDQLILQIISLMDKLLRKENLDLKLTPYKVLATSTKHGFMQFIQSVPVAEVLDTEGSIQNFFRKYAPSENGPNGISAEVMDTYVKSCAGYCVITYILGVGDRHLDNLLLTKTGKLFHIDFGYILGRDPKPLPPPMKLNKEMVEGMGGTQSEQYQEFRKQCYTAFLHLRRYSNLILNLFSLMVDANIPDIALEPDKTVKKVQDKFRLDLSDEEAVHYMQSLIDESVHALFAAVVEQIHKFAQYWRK

IC50 [nM] | SMILES
< 5 | C[C@@H]1COCCN1c1cc(N2CCN(S(=O)(=O)C3CC3)CC2C(F)(F)F)[nH]c(=O)c1 (stereo partly drawn)
< 5 | C[C@@H]1COCCN1c1cc(N2CCN(S(=O)(=O)c3ccnn3C)CC2C(F)(F)F)[nH]c(=O)c1 (stereo partly drawn)
< 5 | C[C@@H]1COCCN1c1cc(N2CCN(S(=O)(=O)N3CCOCC3)CC2C(F)(F)F)[nH]c(=O)c1 (stereo partly drawn)
